Laboratory results taken from US20200197516A1, “Antagonists of Products of the HS.459642 Unigene Cluster for the Inhibition of Proliferation, Development or Differentiation of Stem Cells Including Cancer Stem Cells” (Cavion, Inc., priority 2011, published 2020).

System: glioma stem cells (GSC)
Assay: alamarBlue assay: sensitizing glioma stem cells to Temozolomide
Assay type: cell-based
Settings: mibefradil 30 nM for 24 hrs, washed, then Temozolomide 5 μM for 24 hrs, FIG. 4
Description: FIG. 4. Effect of mibefradil (Mi) on sensitizing glioma stem cells (GSC) to Temozolomide (TMZ). The GSCs were seeded in 24 well plates as 50,000 cells/well overnight. They were grown in serum-free neurobasal media (Invitrogen), supplemented with human recombinant EGF and bFGF (R&D Systems) at 37° C. in 5% CO2, […]. Cells were treated with the T type calcium channel blocker mibefradil (30 nM) for 24 hrs, washed and then treated with Temozolomide (5 μM) for 24 hrs The reagent alamarBlue® (Invitrogen) was added to each well to arrive at a final concentration of 10% alamarBlue® in each well and fluorescence intensity was determined according to the manufacturers instructions. Plates were incubated for 1-2 hrs and 100 μl of supernatant was transferred to a 96 well plate for alamarBlue® reading.
FIG. 5. […]
In order to determine the effect of inhibition of a product of the Hs.459642 Unigene Cluster on cancer stem cells, the effect of two inhibitors of T-type calcium channels was studied to determine if CACNA1H inhibition sensitizes cancer cells to further anti-cancer treatment. […] Subsequent to the combination treatment, with the anti-cancer agent administered sequentially to the CACNA1H inhibitor, fluorescence intensity indicative of cell proliferation was analyzed, with greater intensity indicating increased cellular proliferation. […]

Structure (SMILES): COCC(=O)O[C@]1(CCN(C)CCCc2nc3ccccc3[nH]2)CCc2cc(F)ccc2[C@@H]1C(C)C [Mi, mibefradil]
- fluorescence intensity (alamarBlue, indicative of cell proliferation): dramatically reduced
